According to publication PMC6152791, “Synthesis and Evaluation of Novel 2-Pyrrolidone-Fused (2-Oxoindolin-3-ylidene)methylpyrrole Derivatives as Potential Multi-Target Tyrosine Kinase Receptor Inhibitors” (Molecules : A Journal of Synthetic Chemistry and Natural …, 2017):

Legend:
HUVECs = experiment: In vitro VEGF-induced tube formation assay (Kurabo angiogenesis kit); type: cell-based, human; conditions: for IC50: Homo sapiens, HUVEC, 264 h, VEGF 10 ng/mL, 11 days, read-out: IC50 of Tube Area
Method: Angiogenesis Kit (Kurabo, Neyagawa, Osaka, Japan) was used in accordance with the manufacturer’s protocols. Briefly, HUVECs and fibroblasts were co-cultured in 24-well plates with basal medium or solvent control medium (basal medium containing 1.0% DMSO) or solvent control medium containing 9, 10, 11, and 12 (0.50 μM, 0.25 μM and 0.10 μM). The medium renewals with or without agent in cultures were conducted every 3 days. After 11 days HUVECs were fixed and stained with anti-CD31 antibody in line with the manufacturer’s protocols. The tube formation area were measured using Angiogenesis Image Analyzer (Kurabo, Neyagawa, Osaka, Japan) with suaramin (70 μM) as positive control.

HCT116 cells = experiment: Cell cycle profile by image cytometry; type: cell-based, human; conditions: 24 h
Method: Cell cycle profiles of HCT116 cells were determined with an NC-3000 image cytometer (ChemoMetec, Allerod, Denmark) in accordance with manufacturer’s protocol. Briefly, cells were seeded at 200,000 cells/well on a 6-well plate for 24 h. […] After incubation for 24 h, 100,000 cells were harvested and centrifuged for 5 min at 400 g at room temperature, washed once with PBS […] and resuspended with 50 μL of lysis buffer (ChemoMetec, Allerod, Denmark) containing 10 μg/mL of 2-(4-amidinophenyl)-1H-indole-6-carboxamidine (DAPI, ChemoMetec, Allerod, Denmark). The cells were incubated at 37 °C for 5 min, 50 μL of stabilization buffer (ChemoMetec, Allerod, Denmark) was added to the solution, and the cellular fluorescence was measured with an NC-3000 image cytometer using NC-SlideA8 (ChemoMetec, Allerod, Denmark). The NC-3000 software (ChemoMetec, Allerod, Denmark) was used for image acquisition, image analysis and quantification and data visualization.

Detroit 551 = experiment: Cell proliferation assay (MTT) on normal fibroblasts; type: cell-based; conditions: Homo sapiens, 72 h incubation, normal fibroblast cells
Method: The HCT116 (human colon cancer cells, BCRC 60349) and Detroit 551 (human normal fibroblast cells, BCRC 60118) were maintained in DMEM (Gibco, Grand Island, NY, USA) containing 10% FBS (HyClone, Logan, UT, USA). NCI-H460 (BCRC 60373) and 786-O (BCRC 60243) were maintained in RPMI 1640 (Gibco, Grand Island, NY, USA) containing 10% FBS (HyClone, Logan, UT, USA). They were incubated at 37 °C in a 5% CO2 atmosphere.
The cells incubated as above were plated at a density of 2000 cells/well (cancer cells) or 10,000 cells/well (Detroit 551) on a 96-well plate for 24 h; serial dilutions of indicated compounds were added and incubated for additional 72 h. At the end of the incubation, cell viability was determined by 3-(4,5-dimethylthiazol-2-yl)-2,5-diphenyl tetrazolium bromide (MTT). The MTT formazan crystals were dissolved by DMSO, and the absorbance at 570 nm using a microplate spectrophotometer (Thermo Fisher Scientific, Waltham, MA, USA).

786-O = experiment: Cell proliferation assay (MTT); type: cell-based, human; conditions: for IC50: Homo sapiens, 786-0, MTT, 72 h incubation; for Selective Index (SI) 786-O: relative to Detroit 551 normal fibroblasts
Method: (§1) At the end of the incubation, cell viability was determined by 3-(4,5-dimethylthiazol-2-yl)-2,5-diphenyl tetrazolium bromide (MTT). The MTT formazan crystals were dissolved by DMSO, and the absorbance at 570 nm using a microplate spectrophotometer (Thermo Fisher Scientific, Waltham, MA, USA).

HCT116 = experiment: Cell proliferation assay (MTT); type: cell-based, human; conditions: for IC50: Homo sapiens, HCT-116, MTT, 72 h incubation; for Selective Index (SI) HCT116: relative to Detroit 551 normal fibroblasts
Method: as §1

NCI-H460 = experiment: Cell proliferation assay (MTT); type: cell-based, human; conditions: for IC50: Homo sapiens, NCI-H460, MTT, 72 h incubation; for Selective Index (SI) NCI-H460: relative to Detroit 551 normal fibroblasts
Method: as §1

aurora A = molecular target: T1, aurora A (Homo sapiens, UniProt O14965); experiment: In vitro kinase assay (HotSpot, 33P); type: biochemical; conditions: 1.0 μM compound, ATP 10.0 μM
T1 construct: purchased Reaction Biology Corporation
T1 sequence (O14965 1-403): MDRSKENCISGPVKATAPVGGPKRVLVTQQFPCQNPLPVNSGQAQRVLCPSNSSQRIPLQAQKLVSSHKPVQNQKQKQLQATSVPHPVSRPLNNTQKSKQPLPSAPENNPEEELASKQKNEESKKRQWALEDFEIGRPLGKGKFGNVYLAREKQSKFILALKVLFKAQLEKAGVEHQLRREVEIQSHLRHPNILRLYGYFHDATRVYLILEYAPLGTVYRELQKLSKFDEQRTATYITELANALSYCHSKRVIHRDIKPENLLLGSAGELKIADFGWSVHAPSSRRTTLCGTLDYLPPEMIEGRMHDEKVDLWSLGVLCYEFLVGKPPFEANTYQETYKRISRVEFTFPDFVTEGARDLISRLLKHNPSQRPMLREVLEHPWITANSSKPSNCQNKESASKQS
Method: […]. Briefly, specific kinase and substrate and required cofactors were prepared in reaction buffer. Test compounds were added into the reaction, after 20 min, a mixture of ATP (Sigma, St. Louis, MO, USA) and ^33P ATP (Perkin Elmer, Waltham, MA, USA) was added to make a final concentration of 10.0 μM. Reactions were stood at room temperature for 120 min, and spot the reactions onto P81 ion exchange filter paper (Whatman Inc., Piscataway, NJ, USA). Unbound phosphate was removed by extensive washing of filters in 0.1% phosphoric acid. Kinase activity data was reported as the percent remaining kinase activity in test compounds compared to solvent control (DMSO).

VEGFR-2 = molecular target: T2, VEGFR-2 (Homo sapiens, UniProt P35968); experiment: In vitro kinase assay (HotSpot, 33P); type: biochemical; conditions: ATP 10.0 μM; for inhibition at 0.05 µM: 50 nM compound
T2 construct: purchased Reaction Biology Corporation
Method: (§2) Briefly, specific kinase and substrate and required cofactors were prepared in reaction buffer. Test compounds were added into the reaction, after 20 min, a mixture of ATP (Sigma, St. Louis, MO, USA) and ^33P ATP (Perkin Elmer, Waltham, MA, USA) was added to make a final concentration of 10.0 μM. Reactions were stood at room temperature for 120 min, and spot the reactions onto P81 ion exchange filter paper (Whatman Inc., Piscataway, NJ, USA). Unbound phosphate was removed by extensive washing of filters in 0.1% phosphoric acid. Kinase activity data was reported as the percent remaining kinase activity in test compounds compared to solvent control (DMSO).

PDGFRβ = molecular target: T3, PDGFRβ (Homo sapiens, UniProt P09619); experiment: In vitro kinase assay (HotSpot, 33P); type: biochemical; conditions: ATP 10.0 μM; for inhibition at 0.05 µM: 50 nM compound
T3 construct: purchased Reaction Biology Corporation
Method: as §2

[1] = system: Detroit 551, HCT116, NCI-H460 and 786-O cell lines; experiment: Acute cytotoxicity (WST-8, Cell-Counting-Kit-8); type: cell-based, human; conditions: 10 μM, 6 h, WST-8, all tested cell lines
Method: Cells were seeded at 5000 cells/well on a 96-well plate for 24 h. The indicated compounds in different concentration (100 μL) were added to cells. Post 6 h, old medium was aspirated, and cells were washed three times with PBS. WST-8 (Dojindo, Rockville, MD, USA) (10 µL) was added to each well, and the absorbance of the plate was recorded at 450 nm on a microplate spectrophotometer (Thermo Fisher Scientific, Waltham, MA, USA).

T3 sequence (P09619 33-1106): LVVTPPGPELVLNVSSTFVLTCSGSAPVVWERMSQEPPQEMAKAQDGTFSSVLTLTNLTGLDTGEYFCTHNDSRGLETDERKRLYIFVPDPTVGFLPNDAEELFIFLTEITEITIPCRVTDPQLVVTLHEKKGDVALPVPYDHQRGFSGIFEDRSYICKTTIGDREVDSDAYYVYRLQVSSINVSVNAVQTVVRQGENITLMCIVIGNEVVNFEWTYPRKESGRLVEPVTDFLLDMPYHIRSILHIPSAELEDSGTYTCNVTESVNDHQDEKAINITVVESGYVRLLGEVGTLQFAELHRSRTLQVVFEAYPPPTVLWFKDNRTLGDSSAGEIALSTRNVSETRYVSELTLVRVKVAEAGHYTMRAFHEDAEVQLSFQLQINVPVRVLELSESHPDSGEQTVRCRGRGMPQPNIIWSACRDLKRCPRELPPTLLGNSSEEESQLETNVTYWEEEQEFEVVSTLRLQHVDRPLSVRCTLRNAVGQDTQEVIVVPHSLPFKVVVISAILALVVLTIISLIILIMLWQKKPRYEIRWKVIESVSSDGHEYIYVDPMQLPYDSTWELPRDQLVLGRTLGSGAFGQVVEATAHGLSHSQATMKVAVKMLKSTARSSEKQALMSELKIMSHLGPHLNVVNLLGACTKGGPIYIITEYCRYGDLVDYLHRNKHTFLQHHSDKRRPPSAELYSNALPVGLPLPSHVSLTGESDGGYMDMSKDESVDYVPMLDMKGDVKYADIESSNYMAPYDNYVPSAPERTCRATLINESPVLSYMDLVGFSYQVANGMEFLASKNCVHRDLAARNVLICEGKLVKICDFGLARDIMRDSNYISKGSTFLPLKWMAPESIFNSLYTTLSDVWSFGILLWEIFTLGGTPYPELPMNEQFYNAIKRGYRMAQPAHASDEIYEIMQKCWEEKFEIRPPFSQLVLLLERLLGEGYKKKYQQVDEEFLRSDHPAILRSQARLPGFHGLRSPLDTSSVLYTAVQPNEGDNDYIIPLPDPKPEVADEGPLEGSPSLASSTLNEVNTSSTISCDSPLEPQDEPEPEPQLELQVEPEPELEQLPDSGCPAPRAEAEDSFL
T2 sequence (P35968 20-1356): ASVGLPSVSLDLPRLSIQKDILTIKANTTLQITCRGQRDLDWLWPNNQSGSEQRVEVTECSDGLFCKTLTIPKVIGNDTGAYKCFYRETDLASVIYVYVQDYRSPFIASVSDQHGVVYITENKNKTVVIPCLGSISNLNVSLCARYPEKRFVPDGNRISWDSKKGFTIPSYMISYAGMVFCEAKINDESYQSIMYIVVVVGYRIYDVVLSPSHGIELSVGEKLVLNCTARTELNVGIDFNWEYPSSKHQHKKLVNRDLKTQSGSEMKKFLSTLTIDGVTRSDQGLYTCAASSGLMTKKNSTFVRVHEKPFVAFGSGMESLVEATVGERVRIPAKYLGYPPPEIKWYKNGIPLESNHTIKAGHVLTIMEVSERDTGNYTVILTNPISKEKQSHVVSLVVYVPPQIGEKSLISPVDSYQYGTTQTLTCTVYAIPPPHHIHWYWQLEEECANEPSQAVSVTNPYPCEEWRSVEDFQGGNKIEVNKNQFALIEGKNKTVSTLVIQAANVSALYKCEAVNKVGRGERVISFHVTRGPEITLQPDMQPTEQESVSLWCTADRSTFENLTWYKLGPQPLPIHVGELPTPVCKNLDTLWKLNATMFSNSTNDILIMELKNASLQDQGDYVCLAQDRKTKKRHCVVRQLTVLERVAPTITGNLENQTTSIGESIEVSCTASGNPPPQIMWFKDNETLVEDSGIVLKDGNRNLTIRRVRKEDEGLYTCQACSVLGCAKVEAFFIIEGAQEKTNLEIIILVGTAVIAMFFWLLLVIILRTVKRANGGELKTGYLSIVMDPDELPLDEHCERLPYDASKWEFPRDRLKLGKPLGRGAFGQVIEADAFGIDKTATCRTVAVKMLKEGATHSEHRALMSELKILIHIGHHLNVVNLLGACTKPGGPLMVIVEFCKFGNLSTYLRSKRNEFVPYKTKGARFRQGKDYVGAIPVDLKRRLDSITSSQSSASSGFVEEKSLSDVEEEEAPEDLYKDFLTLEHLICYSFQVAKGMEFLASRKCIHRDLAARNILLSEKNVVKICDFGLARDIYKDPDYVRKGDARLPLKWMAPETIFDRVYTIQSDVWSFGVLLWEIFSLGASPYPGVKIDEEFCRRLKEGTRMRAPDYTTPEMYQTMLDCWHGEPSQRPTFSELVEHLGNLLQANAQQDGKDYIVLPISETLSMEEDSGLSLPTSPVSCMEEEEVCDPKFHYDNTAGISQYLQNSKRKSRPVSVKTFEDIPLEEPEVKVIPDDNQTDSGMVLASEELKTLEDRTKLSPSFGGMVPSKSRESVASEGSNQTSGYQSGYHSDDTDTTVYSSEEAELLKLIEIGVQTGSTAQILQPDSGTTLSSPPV

| SMILES | IC50 (HUVECs) | melting point | cell cycle profile effect (HCT116 cells; 5.0 μM) | IC50 (Detroit 551) | IC50 (786-O) | IC50 (HCT116) | Selective Index (SI) HCT116 (HCT116) | IC50 (NCI-H460) | inhibition at 1 µM (aurora A) | inhibition at 0.05 µM (VEGFR-2) | IC50 (VEGFR-2) | inhibition at 0.05 µM (PDGFRβ) | IC50 (PDGFRβ) | Selective Index (SI) 786-O (786-O) | tube formation IC50, fold stronger than sunitinib (HUVECs; vs sunitinib) | cell cycle profile effect (HCT116 cells; 1.0 μM) | Selective Index (SI) NCI-H460 (NCI-H460) | anti-proliferation potency against HCT116, fold stronger than 8 (HCT116; vs 8 (C(5)-H)) | anti-proliferation potency against HCT116, fold stronger than sunitinib (HCT116; vs sunitinib) | acute cellular toxicity [1] |
| --- | --- | --- | --- | --- | --- | --- | --- | --- | --- | --- | --- | --- | --- | --- | --- | --- | --- | --- | --- | --- |
| CCN(CC)CCN1Cc2[nH]c(/C=C3\C(=O)Nc4ccccc43)c(C)c2C1=O [Compound 8, (Z)-3-((5-(2-(Diethylamino)ethyl)-3-methyl-4-oxo-1,4,5,6-tetrahydropyrrolo[3,4-b]pyrrol-2-yl)methylene)indolin-2-one] | 0.31 ± 0.015 µM | 167 to 168 °C | increase phase of polyploid | > 10 µM | > 10 µM | 4.25 ± 1.88 µM | >2.35 | > 10 µM | 95.9% | 56% | 0.0302 µM | 64% | 0.0224 µM | – | – | – | – | – | – | – |
| CCN(CC)CCN1Cc2[nH]c(/C=C3\C(=O)Nc4ccc(F)cc43)c(C)c2C1=O [Compound 9, (Z)-3-((5-(2-(Diethylamino)ethyl)-3-methyl-4-oxo-1,4,5,6-tetrahydropyrrolo[3,4-b]pyrrol-2-yl)methylene)-5-fluoroindolin-2-one] | 0.367 ± 0.016 µM | 245 to 246 °C | G0/G1 cell cycle arrest | > 10 µM | > 10 µM | 2.94 ± 0.66 µM | >3.4 | > 10 µM | 93.1% | 35% | 0.111 µM | 36% | 0.0975 µM | – | – | – | – | – | – | – |
| CCN(CC)CCN1Cc2[nH]c(/C=C3\C(=O)Nc4ccc(Cl)cc43)c(C)c2C1=O [Compound 10, (Z)-5-Chloro-3-((5-(2-(diethylamino)ethyl)-3-methyl-4-oxo-1,4,5,6-tetrahydropyrrolo[3,4-b]pyrrol-2-yl)methylene)indolin-2-one] | 0.299 ± 0.07 µM | 252 to 253 °C | G0/G1 cell cycle arrest | > 10 µM | 7.3 ± 1.2 µM | 3.09 ± 0.7 µM | >3.23 | > 10 µM | 93.7% | 58% | 0.035 µM | 64% | 0.0249 µM | >1.37 | – | – | – | – | – | – |
| CCN(CC)CCN1Cc2[nH]c(/C=C3\C(=O)Nc4ccc(Br)cc43)c(C)c2C1=O [Compound 11, (Z)-5-Bromo-3-((5-(2-(diethylamino)ethyl)-3-methyl-4-oxo-1,4,5,6-tetrahydropyrrolo[3,4-b]pyrrol-2-yl)methylene)indolin-2-one] | 0.179 ± 0.029 µM | 266 to 267 °C | – | > 10 µM | 7.06 ± 0.3 µM | 1.05 ± 0.18 µM | >9.52 | 6.57 ± 1.64 µM | 93.1% | 64% | 0.0247 µM | 68% | 0.0161 µM | >1.42 | approximately 2 fold | increase phase of polyploid | >1.52 | – | – | – |
| CCN(CC)CCN1Cc2[nH]c(/C=C3\C(=O)Nc4ccc(I)cc43)c(C)c2C1=O [Compound 12, (Z)-3-((5-(2-(Diethylamino)ethyl)-3-methyl-4-oxo-1,4,5,6-tetrahydropyrrolo[3,4-b]pyrrol-2-yl)methylene)-5-iodoindolin-2-one] | 0.313 ± 0.037 µM | 267 to 268 °C | – | 9.21 ± 1.61 µM | 7.76 ± 0.29 µM | 0.42 ± 0.16 µM | 21.93 | 2.95 ± 0.83 µM | 92.9% | 58% | 0.0351 µM | 62% | 0.0293 µM | 1.19 | – | G0/G1 cell cycle arrest | 3.12 | ~10 fold | approximately 8 fold | – |
| CCN(CC)CCNC(=O)c1c(C)[nH]c(/C=C2\C(=O)Nc3ccc(F)cc32)c1C [Sunitinib, sunitinib, reference compound] | 0.387 ± 0.016 µM | – | G0/G1 cell cycle arrest | – | 6.27 ± 0.67 µM | 3.42 ± 0.57 µM | – | 6.23 ± 0.57 µM | – | – | – | 44% | – | – | – | – | – | – | – | nearly free from acute cellular toxicity |
